These results are taken from paper PMC4186856, “Structural Basis for Resistance to Diverse Classes of NAMPT Inhibitors” (PLoS ONE, 2014).

Data set [1] concerns cell lines carrying S165Y (NCI-H460). In words: Cellular IC50 shift, resistant cell line carrying S165Y. Format: cell-based.
Data set [2] in a line: Tolerability in xenograft-bearing mice. Format: in vivo. The conditions noted are these: doses tested in NCI-H460 parental and S165Y mutant models, oral QD 7 days.
The test system of data set [3] is 293T cells expressing NAMPT S165F. Kind of data set: Response of 293T cells expressing NAMPT S165F. Format: cell-based. Particulars: NAMPT S165F expressed in 293T cells.
Data set [4] relates to NCI-H460 tumor xenografts. Kind of data set: NCI-H460 parental xenograft efficacy. Format: in vivo, mice. The conditions noted are these: 100 mg/kg, oral, QD for 7 days, p = 0.007 vs. vehicle.
Data set [5] deals with NCI-H460 S165Y tumor xenografts. Kind of data set: NCI-H460 S165Y mutant xenograft efficacy. Particulars: oral QD, also at higher doses.
For data set [6], the system named is RD cell line with the S165F mutation. The conditions noted are these: RD parent and S165F resistant line, ± 10 µM nicotinic acid.
Data set [7] concerns GNE-618 resistant cell lines. Kind of data set: Total cellular NAD in GNE-618 resistant cell lines. Format: cell-based. Particulars: after GNE-618 at 100-fold the parental line IC50; all resistant lines except those harboring only D93del or S165Y.
The test system of data set [8] is NCI-H460 cell line. In words: Cellular IC50 in parental NCI-H460 cell line. The conditions noted are these: Homo sapiens, read-out: Parental GNE-618 IC50, NAPRT1 negative. Format: cell-based.
Data set [9] relates to RD cell line. Kind of data set: Cellular IC50 in parental RD cell line. Format: cell-based. Particulars: Homo sapiens, read-out: Parental GNE-618 IC50, NAPRT1 negative.
The test system of data set [10] is GNE-618 resistant cell lines harboring mutations other than D93del only or S165Y. In words: Cellular IC50 shift, resistant cell lines harboring the other mutations. Format: cell-based. Particulars: cell lines harboring the other mutations (not D93del only or S165Y).
Data set [11] concerns 293T cells expressing NAMPT S165Y. Kind of data set: Response of 293T cells expressing NAMPT S165Y. Particulars: NAMPT S165Y expressed in 293T cells. Format: cell-based.
Data set [12] deals with RD cell line harboring only the D93 deletion. Kind of data set: Cellular IC50 shift, RD resistant line (earlier passage) with D93 deletion only. Format: cell-based. Particulars: cell line carrying D93del.
The test system of data set [13] is Mia-Paca2 cell line. Kind of data set: Cellular IC50 in parental Mia-Paca2 cell line. The conditions noted are these: Homo sapiens, MIA PaCa-2, read-out: Parental GNE-618 IC50, NAPRT1 negative. Format: cell-based.
The subject of data set [14] is NCI-H520 cell line. Kind of data set: Cellular IC50 in parental NCI-H520 cell line. Format: cell-based. The conditions noted are these: Homo sapiens, read-out: Parental GNE-618 IC50, NAPRT1 positive.
For data set [15], the target named is T1, NAMPT G217R (Homo sapiens, UniProt P43490, G217R).
T1 construct: An expression construct for full length human (XP_540386) NAMPT was constructed using pET21B; His6 (C); made in house; host or cells: E. coli Rosetta (DE3)
T1 sequence (P43490 whole entry G217R): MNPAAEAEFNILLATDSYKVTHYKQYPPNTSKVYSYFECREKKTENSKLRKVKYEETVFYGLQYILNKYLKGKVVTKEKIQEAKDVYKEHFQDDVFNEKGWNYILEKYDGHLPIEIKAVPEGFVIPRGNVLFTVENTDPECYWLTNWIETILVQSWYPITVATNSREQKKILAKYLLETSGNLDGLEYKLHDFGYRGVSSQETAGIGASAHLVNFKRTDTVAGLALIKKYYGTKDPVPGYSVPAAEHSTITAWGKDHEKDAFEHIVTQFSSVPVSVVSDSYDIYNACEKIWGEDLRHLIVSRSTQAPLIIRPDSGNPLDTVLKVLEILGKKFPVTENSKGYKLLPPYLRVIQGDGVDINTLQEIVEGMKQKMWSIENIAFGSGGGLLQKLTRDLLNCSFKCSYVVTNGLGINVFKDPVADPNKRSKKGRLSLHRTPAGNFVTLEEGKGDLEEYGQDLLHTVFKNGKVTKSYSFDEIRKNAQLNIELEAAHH
In words: NAMPT enzymatic inhibition, G217R mutant protein. The conditions noted are these: purified G217R NAMPT 30 nM; 1 µM NAM, 100 µM PRPP, 2.5 mM ATP; read-out: Biochemical IC50, G217R.

Data set [16] concerns the target T2, NAMPT G217V (Homo sapiens, UniProt P43490, G217V).
T2 construct: An expression construct for full length human (XP_540386) NAMPT was constructed using pET21B; His6 (C); made in house; host or cells: E. coli Rosetta (DE3)
In words: NAMPT enzymatic inhibition, G217V mutant protein. The conditions noted are these: purified G217V NAMPT 30 nM; 1 µM NAM, 100 µM PRPP, 2.5 mM ATP; read-out: Biochemical IC50, G217V.

Data set [17] concerns the target T3, NAMPT S165F (Homo sapiens, UniProt P43490, S165F).
T3 construct: An expression construct for full length human (XP_540386) NAMPT was constructed using pET21B; His6 (C); made in house; host or cells: E. coli Rosetta (DE3)
Kind of data set: NAMPT enzymatic inhibition, S165F mutant protein. Particulars: purified S165F NAMPT 30 nM; 1 µM NAM, 100 µM PRPP, 2.5 mM ATP; read-out: Biochemical IC50, S165F.

The target in data set [18] is T4, NAMPT H191R (Homo sapiens, UniProt P43490, H191R).
T4 construct: An expression construct for full length human (XP_540386) NAMPT was constructed using pET21B; His6 (C); made in house; host or cells: E. coli Rosetta (DE3)
T4 sequence (P43490 whole entry H191R): as the sequence (P43490 whole entry G217R) above, with H191R, R217G counted along it
Kind of data set: NAMPT enzymatic inhibition, H191R mutant protein. The conditions noted are these: purified H191R NAMPT 30 nM; 1 µM NAM, 100 µM PRPP, 2.5 mM ATP; read-out: Biochemical IC50, H191R.

Data set [19] has as its target T5, NAMPT S165Y (Homo sapiens, UniProt P43490, S165Y).
T5 construct: An expression construct for full length human (XP_540386) NAMPT was constructed using pET21B; His6 (C); made in house; host or cells: E. coli Rosetta (DE3)
Kind of data set: NAMPT enzymatic inhibition, S165Y mutant protein. Particulars: purified S165Y NAMPT 50 nM; 1 µM NAM, 100 µM PRPP, 2.5 mM ATP; read-out: Biochemical IC50, S165Y.

Data set [20] has as its target T6, NAMPT G217A (Homo sapiens, UniProt P43490, G217A).
T6 construct: An expression construct for full length human (XP_540386) NAMPT was constructed using pET21B; His6 (C); made in house; host or cells: E. coli Rosetta (DE3)
Kind of data set: NAMPT enzymatic inhibition, G217A mutant protein. Particulars: purified G217A NAMPT 30 nM; 1 µM NAM, 100 µM PRPP, 2.5 mM ATP; read-out: Biochemical IC50, G217A.

The target of data set [21] is T7, WT NAMPT (Homo sapiens, UniProt P43490).
T7 construct: An expression construct for full length human (XP_540386) NAMPT was constructed using pET21B; His6 (C); made in house; host or cells: E. coli Rosetta (DE3)
T7 sequence (P43490 whole entry): as the sequence (P43490 whole entry G217R) above, with R217G counted along it
Kind of data set: NAMPT enzymatic inhibition, wild-type protein (RapidFire/MS detection of NMN). The conditions noted are these: purified wild-type NAMPT 30 nM; 1 µM NAM, 100 µM PRPP, 2.5 mM ATP; read-out: Biochemical IC50, WT.

T2 sequence (P43490 whole entry G217V): as the sequence (P43490 whole entry G217R) above, with R217V counted along it
T3 sequence (P43490 whole entry S165F): as the sequence (P43490 whole entry G217R) above, with S165F, R217G counted along it
T5 sequence (P43490 whole entry S165Y): as the sequence (P43490 whole entry G217R) above, with S165Y, R217G counted along it
T6 sequence (P43490 whole entry G217A): as the sequence (P43490 whole entry G217R) above, with R217A counted along it

As a reminder, the IC50 is the concentration that inhibits the measured activity by half. In the case of `O=C(NCc1ccc(S(=O)(=O)c2cccc(C(F)(F)F)c2)cc1)c1cnc2[nH]ncc2c1` [compound 1], the “Shift in IC50 vs parental” value in data set [1] and in data set [12] was “less than 100 fold” in each case. Moreover, the “Tolerability (weight loss, morbidity, mortality)” value in [2] is “well tolerated”. Further, the “Sensitivity compared to wild-type NAMPT expression” value in data set [3] and in data set [11] was “diminished sensitivity” throughout. For the same compound, the Tumor growth inhibition in [4] is reported as 54%. Also, the “Response of tumor xenografts to treatment” value in data set [5] is “completely resistant”. Besides, the “IC50 in the presence or absence of 10 µM NA” value in data set [6] is “not significantly different”. Also, the “Reduction of cellular NAD” value in [7] is “less than 90%”. The IC50 in [8] was found to be 197 ± 6 nM; in data set [9], 2 ± 0.2 nM; in [13], 34 ± 2 nM; in data set [14], 9 ± 0.4 nM. Besides, the “Increase in IC50 vs parental” value in data set [10] was ≥ 100 fold.

As for `O=C(NCc1ccc(S(=O)(=O)c2cccc(C(F)(F)F)c2)cc1)c1cc2cnccc2s1` [compound 2], the IC50 in [15] is > 5000 nM; in data set [16] it was > 5000 nM; in data set [17], 15 nM; in data set [18] it was 2170 nM; in data set [19], 21 nM; in [20] it was 191 nM. Further, the 50% inhibitory concentration (IC50) in data set [21] was found to be 5 nM.

`O=C(NCc1ccc(S(=O)(=O)c2ccccc2)cc1)c1cnc2[nH]ncc2c1` [compound 4]: the IC50 in [15] was > 5000 nM; in data set [16], 4160 nM; in data set [17] it was 1930 nM; in data set [18], > 5000 nM; in [19] it was 2530 nM; in data set [20], > 5000 nM. Also, the IC50 in [21] amounted to 80 nM.

In the case of `O=C(NCc1ccc(S(=O)(=O)c2ccc(N3CCOCC3)nc2)cc1)c1cnc2[nH]ncc2c1` [compound 6], the IC50 in [15] was > 5000 nM; in data set [16] it was > 5000 nM; in [17], 175 nM; in data set [18], > 5000 nM; in data set [19] it was 148 nM; in data set [20], > 5000 nM. Besides, the IC50 in data set [21] turned out to be 26 nM.

Consider `CCN(C)c1ncc(S(=O)(=O)c2ccc(CNC(=O)c3cnc4[nH]ncc4c3)cc2)s1` [compound 7], for which the IC50 is > 5000 nM in [15]; 3380 nM in data set [16]; 42 nM in [17]; > 5000 nM in data set [18]; 115 nM in data set [19]; 2050 nM in data set [20]. In addition, the IC50 in data set [21] is 7 nM.

Regarding `N#CN=C(NCCCCCCOc1ccc(Cl)cc1)Nc1ccncc1` [compound 9], the “Sensitivity compared to wild-type NAMPT expression” value in [3] and in [11] was “more modest” throughout.

As to `O=C(/C=C/c1cccnc1)NCCCCC1CCN(C(=O)c2ccccc2)CC1` [compound 11], the “Sensitivity compared to wild-type NAMPT expression” value in data set [3] and in [11] was “more modest” throughout.
